Test results published in patent publication US11208404B2 (PERENNA PHARMACEUTICALS, INC., priority 2017, dated 2021).
Where two headings read alike, the source gives them in different places.

Experiments:
ALCAT1 [1] = molecular target: T1, ALCAT1 (Homo sapiens (Human), UniProt Q6UWP7); assay: In vitro acyltransferase assay for ALCAT1 inhibitors; format: biochemical; settings: for IC50: ALCAT1 enzyme activity
Method in brief: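 Membrane fractions from Sf9 cells expressing human ALCAT1 incubated 30 min at room temperature with 100 µM MLCL or LPG and 25 µM [14C]acyl-CoA (or 100 µM NBD-CoA) in 50 mM Tris/HCl pH 7.0.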
Target sequence in this assay (Q6UWP7 whole entry): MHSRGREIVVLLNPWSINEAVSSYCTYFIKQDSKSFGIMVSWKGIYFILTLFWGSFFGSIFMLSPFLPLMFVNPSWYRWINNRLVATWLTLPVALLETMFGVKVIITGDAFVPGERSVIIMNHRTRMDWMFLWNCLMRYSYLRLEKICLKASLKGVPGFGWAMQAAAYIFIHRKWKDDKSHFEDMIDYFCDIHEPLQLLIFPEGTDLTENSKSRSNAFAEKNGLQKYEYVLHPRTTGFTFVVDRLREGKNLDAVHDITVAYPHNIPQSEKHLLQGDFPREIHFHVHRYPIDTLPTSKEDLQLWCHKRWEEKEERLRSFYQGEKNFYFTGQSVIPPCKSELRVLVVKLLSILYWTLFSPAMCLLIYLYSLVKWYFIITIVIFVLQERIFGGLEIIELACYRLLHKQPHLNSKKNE

ALCAT1 [2] = molecular target: T1, ALCAT1; assay: Cell-based assay for ALCAT inhibitor compounds (H9C2 cells); settings: H9c2, 3 μM compound; H9C2 vector cell line and H9C2 with stable overexpression of ALCAT1
Description: The assay was performed on the H9C2 vector cell line and H9C2 with stable overexpression of ALCAT1. Materials used in the protocol were CoA, LPG, compounds, chloroform, methanol, 0.9% KCl, 6-well-plates, 1.5 mL tubes, DMEM, FBS, P/S and PBS.
Cells were seeded in 6-well-plates, 8×10^5 cells/well, and cultured at 37° C. in 5% CO2 overnight.
Cells were washed once with ice-cold PBS, collected in ice-cold PBS and centrifuged at 5000 rpm for 5 min at 4° C. 200 μL of chloroform: methanol (2:1) was added to the cell pellet, which was vortexed to suspend the cells and incubated at RT for 1 hr.
40 μL of 0.9% KCl was added and the sample was vortexed before centrifugation at 10000 rpm for 5 min at RT. The aqueous phase (upper layer) was discarded and the organic phase (lower layer) was loaded to a TLC plate (10 cm×20 cm), 40 μL/sample.
The plates were developed in chloroform: methanol: water (65:25:4) for about 30 min and scanned using a Typhoon Scanner. The bands intensity was analysed using ImageJ and the inhibition activity of the tested compounds was calculated.
Compound inhibitors for ALCAT1 enzyme were analyzed by an in vitro cell-based assay as detailed above.
Target sequence in this assay (Q6UWP7 whole entry, species assumed): as the sequence (Q6UWP7 whole entry) above

[3] = 1 μM compound, in vitro enzymatic assay
[4] = read-out: IC50 values (upper bounds)
[5] = triplicates, GraphPad, read-out: IC50

Row | Structure (SMILES) | inhibition at 1 µM (ALCAT1 [1]; [3]) | IC50 (ALCAT1 [1]; [4]) | IC50 (ALCAT1 [1]; [5]) | inhibition at 3 µM (ALCAT1 [2]) | % inh @ 1 μM (ALCAT1 [1]; [3])
1 | O=C(Nc1cc(-c2nnc(-c3ccco3)o2)ccc1F)c1cc(F)ccc1OCCF [Compound 312, 5-Fluoro-N-(2-fluoro-5-(5-(furan-2-yl)-1,3,4-oxadiazol-2-yl)phenyl)-2-(2-fluoroethoxy)benzamide] | 98% | < 100 nM | 33 nM | 4% | –
2 | O=C(Nc1cc(-c2nnc(-c3ccco3)o2)ccc1F)c1ccccc1OCC(F)(F)F [Compound 313, N-(2-Fluoro-5-(5-(furan-2-yl)-1,3,4-oxadiazol-2-yl)phenyl)-2-(2,2,2-trifluoroethoxy)benzamide] | 94% | – | 64 nM | 19% | –
3 | O=C(Nc1cc(-c2nnc(-c3ccco3)o2)ccc1F)c1ccccc1OCC(F)F [Compound 314, 2-(2,2-Difluoroethoxy)-N-(2-fluoro-5-(5-(furan-2-yl)-1,3,4-oxadiazol-2-yl)phenyl)benzamide] | 95% | < 100 nM | 29 nM | 36% | –
4 | O=C(Nc1cc(-c2nnc(-c3ccco3)o2)ccc1F)c1cc(Cl)ccc1OCC(F)F [Compound 317, 5-Chloro-2-(2,2-difluoroethoxy)-N-(2-fluoro-5-(5-(furan-2-yl)-1,3,4-oxadiazol-2-yl)phenyl)benzamide] | 96% | < 100 nM | 19 nM | 52% | –
5 | O=C(Nc1cc(-c2nnc(-c3ccco3)o2)ccc1F)c1cc(Cl)ccc1OCCF [Compound 318, 5-Chloro-N-(2-fluoro-5-(5-(furan-2-yl)-1,3,4-oxadiazol-2-yl)phenyl)-2-(2-fluoroethoxy)benzamide] | 98% | < 100 nM | 24 nM | 36% | –
6 | O=C(Nc1cc(-c2nnc(-c3ccco3)o2)ccc1F)c1cc(F)ccc1OCC(F)(F)F [Compound 319, 5-Fluoro-N-(2-fluoro-5-(5-(furan-2-yl)-1,3,4-oxadiazol-2-yl)phenyl)-2-(2,2,2-trifluoroethoxy)benzamide] | 96% | – | 46 nM | 12% | –
7 | O=C(Nc1cc(-c2nnc(-c3ccco3)o2)ccc1F)c1cc(F)ccc1OCC(F)F [Compound 320, 2-(2,2-Difluoroethoxy)-5-fluoro-N-(2-fluoro-5-(5-(furan-2-yl)-1,3,4-oxadiazol-2-yl)phenyl)benzamide] | 96% | < 100 nM | 34 nM | 17% | –
8 | Cc1ccc(OCCF)c(C(=O)Nc2cc(-c3nnc(-c4ccco4)o3)ccc2F)c1 [Compound 321, N-(2-Fluoro-5-(5-(furan-2-yl)-1,3,4-oxadiazol-2-yl)phenyl)-2-(2-fluoroethoxy)-5-methylbenzamide] | 94% | – | 38 nM | 75% | 92%
9 | Cc1ccc(OCC(F)(F)F)c(C(=O)Nc2cc(-c3nnc(-c4ccco4)o3)ccc2F)c1 [Compound 322, N-(2-fluoro-5-(5-(furan-2-yl)-1,3,4-oxadiazol-2-yl)phenyl)-5-methyl-2-(2,2,2-trifluoroethoxy)benzamide] | 94% | – | 61 nM | 26% | –
10 | Cc1ccc(OCC(F)F)c(C(=O)Nc2cc(-c3nnc(-c4ccco4)o3)ccc2F)c1 [Compound 323, 2-(2,2-Difluoroethoxy)-N-(2-fluoro-5-(5-(furan-2-yl)-1,3,4-oxadiazol-2-yl)phenyl)-5-methylbenzamide] | 96% | < 100 nM | 26 nM | 14% | –
11 | CCOc1ccc(CC)cc1C(=O)Nc1cc(-c2nnc(-c3ccco3)o2)ccn1 [Compound 373, 2-Ethoxy-5-ethyl-N-(4-(5-(furan-2-yl)-1,3,4-oxadiazol-2-yl)pyridin-2-yl)benzamide] | 98% | – | 38 nM | 3% | –
12 | COc1ccc(C(F)(F)F)cc1C(=O)Nc1cc(-c2nnc(-c3ccco3)o2)ccn1 [Compound 396, N-(4-(5-(Furan-2-yl)-1,3,4-oxadiazol-2-yl)pyridin-2-yl)-2-methoxy-5-(trifluoromethyl)benzamide] | 96% | – | 78 nM | 45% | –
13 | COc1ccc(OC(F)(F)F)cc1C(=O)Nc1cc(-c2nnc(-c3ccco3)o2)ccn1 [Compound 400, N-(4-(5-(Furan-2-yl)-1,3,4-oxadiazol-2-yl)pyridin-2-yl)-2-methoxy-5-(trifluoromethoxy)benzamide] | 96% | – | 62 nM | 50% | –
14 | COc1ccc(OC(F)(F)F)cc1C(=O)Nc1cc(-c2nnc(-c3ccco3)o2)ccc1F [Compound 405, N-(2-Fluoro-5-(5-(furan-2-yl)-1,3,4-oxadiazol-2-yl)phenyl)-2-methoxy-5-(trifluoromethoxy)benzamide] | 98% | < 100 nM | 19 nM | 52% | –
15 | COc1ccc(C(F)(F)F)cc1C(=O)Nc1cc(-c2nnc(-c3ccco3)o2)ccc1F [Compound 416, N-(2-Fluoro-5-(5-(furan-2-yl)-1,3,4-oxadiazol-2-yl)phenyl)-2-methoxy-5-(trifluoromethyl)benzamide] | 98% | < 100 nM | 19 nM | 45% | –
16 | CCOc1ccc(CC)cc1C(=O)N(c1cc(-c2nnc(-c3ccco3)o2)ccc1F)P(=O)(O)O [Compound 497, (2-ethoxy-5-ethylbenzoyl) (2-fluoro-5-(5-(furan-2-yl)-1,3,4-oxadiazol-2-yl)phenyl)phosphoramidic acid] | 90% | – | 72 nM | 75% | –
